Earlier results as cited in US20030216407A1, “Use of PDE5 inhibitors in the treatment of scarring” (Pfizer Inc., priority 2002, published 2003).

Experiments:
[1] = test system: normal rat kidney fibroblast collagen synthesis; details: in vitro
PDE6 against PDE5 = details: more potent against PDE6 than against PDE5
[2] = test system: adult cardiac fibroblasts; details: substance on its own

Q: For `Nc1nc2c(ncn2[C@@H]2O[C@@H]3COP(=O)(O)O[C@H]3[C@H]2O)c(=O)[nH]1` [cGMP], which “collagen synthesis induced by CTGF” value [1] is on record?
A: no effect

Q: For `CCCOc1ccccc1-c1nc2nn[nH]c2c(=O)[nH]1` [zaprinast], which “potency against PDE6 relative to PDE5” value (PDE6 against PDE5) is on record?
A: five fold

Q: What about the “regulating cardiac fibroblast proliferation” value [2] of the same compound?
A: no effect

Q: With atrial natriurectic peptide [ANP] as the compound, how does the “regulating cardiac fibroblast proliferation” value [2] read?
A: did not on its own regulate
